Experimental data published in US5817815A, “Pharmacologically active enantiomers” (Angelini Ricerche S.p.A. Societa Consortile, priority 1993, dated 1998).

Tests used:
[1] = system: alpha 1 adrenergic receptors; test: affinity for alpha 1 adrenergic receptors, receptor binding test; settings: for interference with the adrenergic receptor, in words: comparison with racemate; for IC50: receptor binding
From the text: (§1) Since an interference with the adrenergic system is an index of undesirable effects, both the capability of binding to alpha 1 adrenergic receptors, as IC50 (Table 2), and the alphalytic activity (Table 3) of the same compounds have been evaluated.
As far as the receptor binding test is concerned, reference is made to "Molecular Pharmacology", 20, 295-301, (1981).

[2] = molecular target: T1, deferent of rat (Rattus norvegicus, UniProt P43140); test: alphalytic activity on an isolated organ (deferent of rat); settings: comparison of enantiomers and racemate
T1 construct: evaluated on an isolated organ (deferent of rat); from tissue; host or cells: isolated vas deferens of rat
T1 sequence (P43140 1-466): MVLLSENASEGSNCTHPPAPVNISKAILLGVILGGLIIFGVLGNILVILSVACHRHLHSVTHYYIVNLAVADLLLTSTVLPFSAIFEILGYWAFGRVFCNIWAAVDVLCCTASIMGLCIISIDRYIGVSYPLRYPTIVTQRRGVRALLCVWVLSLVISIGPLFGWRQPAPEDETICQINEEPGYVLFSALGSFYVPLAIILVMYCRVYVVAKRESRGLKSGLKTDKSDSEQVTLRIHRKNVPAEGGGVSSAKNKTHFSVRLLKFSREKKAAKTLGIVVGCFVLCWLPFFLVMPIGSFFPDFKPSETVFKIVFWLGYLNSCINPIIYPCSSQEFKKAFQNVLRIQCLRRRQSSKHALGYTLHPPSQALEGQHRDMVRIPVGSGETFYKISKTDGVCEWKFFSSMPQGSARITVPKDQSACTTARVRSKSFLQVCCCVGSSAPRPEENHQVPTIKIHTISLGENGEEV
Protocol: as §1
(§2) In turn, the alphalytic activity was evaluated on an isolated organ (deferent of rat) according to the technique described in "Clinical and Experimental Pharmacology & Physiology", 6, 275-279, (1979).

[3] = molecular target: T2, deferent of rat (Rattus norvegicus); test: as above; settings: isolated deferent of rat; read-out: Alphalytic activity pA2 (converted)
T2 construct: evaluated on an isolated organ (deferent of rat); from tissue; host or cells: isolated vas deferens of rat
Protocol: as §1, §2

[4] = analgesic activity, phenylquinone test in mice via subcutaneous route; format: in vivo; settings: for ED50: Mus musculus, sc, mice, subcutaneous, phenylquinone test; for analgesic activity, in words: comparison of enantiomers and racemate
Protocol: Thirty animals were treated with each product.

SMILES: C[C@H]1CN(c2cccc(Cl)c2)CCN1CCCn1nc2ccccn2c1=O [(S), (S)-2-[3-[4-(3-chlorophenyl)-1-(2-methyl)-piperazinyl]-propyl]-1,2,4-triazol[4,3-a]-pyridine-3(2H)-one]
- interference with the adrenergic receptor, in words [1]: lower than those of racemate
- IC50 [1]: 981 nM
- alphalytic activity, in words [2]: lower than those of racemate
- alphalytic activity, in words ([2]; listed as (S) enantiomer): lower than that of (R) enantiomer
- Kb [3]: 3980 nM
- ED50 [4]: 7.8 mg/kg
- analgesic activity, in words [4]: more active than (R) enantiomer

SMILES: CC1CN(c2cccc(Cl)c2)CCN1CCCn1nc2ccccn2c1=O (racemic) [Racemate, reference compound]
- IC50 [1]: 471 nM
- Kb [3]: 20 nM
- ED50 [4]: > 12.5 mg/kg
- analgesic activity, in words [4]: less analgesic activity compared to the single enantiomers

SMILES: C[C@@H]1CN(c2cccc(Cl)c2)CCN1CCCn1nc2ccccn2c1=O [(R), (R)-2-[3-[4-(3-chlorophenyl)-1-(2-methyl)-piperazinyl]-propyl]-1,2,4-triazol[4,3-a]-pyridine-3(2H)-one]
- interference with the adrenergic receptor, in words [1]: lower than those of racemate
- IC50 [1]: 533 nM
- alphalytic activity, in words [2]: lower than those of racemate
- Kb [3]: 178 nM
- ED50 [4]: 9.02 mg/kg
